Here are results for four compounds from patent US6262116A, “Transcription therapy for cancers” (Sloan-Kettering Institute for Cancer Research, priority 1998, dated 2001).

Data set [1] has as its system PML-retinoic acid receptor-α. Briefly: 3XRARE-Luc reporter transfection assay in 293T cells, PML-RARα. It is filed as cell-based, human. How it is done: (§1) The experiment was performed in medium reconstituted with serum not depleted of endogenous retinoids. Luciferase activity was measured in a scintillation counter and normalized with the internal β-galactosidase standard. […] Note that in panels A and B luciferase activity is expressed by different scales.
(§2) Luciferase activity was normalized with the internal β-galactosidase standard. Values represent the averages of two independent transfections.
(§3) 293T cells and KG1 cells were transfected by calcium phosphate precipitation, and by electroporation as already described^25, and luciferase activity of each sample was normalized against internal control β-galactosidase activity^25.
(§4) Nuclear receptor co-repressors form complexes with histone deacetylases (HDAC1 or 2), resulting in nucleosome assembly and transcriptional repression^15.

The test system of data set [2] is PLZF-retinoic acid receptor-α. Briefly: 3XRARE-Luc reporter transfection assay in 293T cells, PLZF-RARα. Type of data set: cell-based, human. On the procedure:
as §1, §2, §3, §4

Data set [3] relates to PLZF-retinoic acid receptor-α bone marrow leukaemic cells. Briefly: Myeloid differentiation (NBT assay) of PLZF-RARα bone marrow leukaemic cells. It is filed as cell-based, mouse. As to conditions: Trichostatin A alone (5 ng/ml). How it is done: (§5) Myeloid differentiation was evaluated by performing the nitroblue tetrazolium (NBT) assay, and cell proliferation by measuring DNA synthesis quantitating incorporation of ^3 H-thymidine.
(§6) Differentiation was evaluated performing the nitroblue tetrazolium (NBT) assay and morphological differential count^32. Proliferation of bone marrow cells was evaluated by measuring DNA synthesis quantitating incorporation of ^3 H-thymidine (Amersham). Bone marrow cells were plated at a density of 2×10^6 cells/ml and were pulsed with ^3 H-thymidine at a final concentration of […].

The test system is the same in data set [4]. Description: Proliferation (3H-thymidine incorporation) of PLZF-RARα bone marrow leukaemic cells. It is filed as cell-based, mouse. On the procedure:
as §5, §6
On the technique in general: Incorporation of labelled thymidine or its analogues reports DNA synthesis.

In data set [5] the test system is acute promyelocytic leukemia. Type of data set: in vivo, human. Conditions: Jan. `98 (first line). The source says:
The patient used for clinical study is a person who was diagnosed with acute promyelocytic leukemia in 1994.

For data set [6], the system named is NB4 cells. Briefly: NB4 cell differentiation (CD11b expression and NBT reduction). Type of data set: cell-based, human. On the procedure:
(§7) NB4 cells, a line that stably carries the PML/RAR-α fusion protein of acute promyelocytic leukemia^71, were maintained in RPMI1640 medium, which was supplemented with 10% fetal bovine serum and 1% of penicillin-streptomycin, at 37° C. in 5% CO2 atmosphere. Cultures were established at an initial density of 10^5 cells/ml in the presence or absence of drugs at various concentrations. Cellular proliferation was measured by assessment of ^3 H-thymidine incorporation. Aliquots (180 μl) from each culture were placed into 96-well plates in triplicate after 20 hrs of incubation, and 0.5 μCi of ^3 H-thymidine in 20 μl of medium was added to each well. […] The proportion of cells undergoing apoptosis was determined by Annexin V staining^72. Aliquots (1 ml) from each culture were harvested after 48 hrs incubation and the cells were stained with fluorescein isothiocyanate (FITC)-conjugated Annexin V and propidium iodide, according to the manufacturer's instructions (PharMingen, San Diego, Calif.). Annexin V and propidium iodide positivity were analyzed by flow cytometry (Becton-Dickinson, Mountainview, Calif.). Cell viability was measured after 4 days of incubation by using trypan blue exclusion. Cellular differentiation was evaluated at day 4 of incubation using both an assay for nitroblue tetrazolium (NBT) reduction and expression of CD11b (a cell surface differentiation antigen)^73. Briefly, 10^6 cells were harvested and incubated with 0.1% NBT solution in the presence of 12-o-tetradecanoylphorbol 13-acetate (TPA) (0.1 μg/ml) for 1 hr. The pellet of the mixture was then resuspended with 0.04 M HCl/10% SDS and kept at room temperature for 24 hrs. […] For CD11b expression, 10^6 cells were incubated with FITC-conjugated CD11b monoclonal antibody (PharMingen). A FITC-conjugated isotype was used as background control. Expression of CD11b, including percentage of positive cells and the fluorescence intensity, was determined by using flow cytometry (Becton Dickinson).

Data set [7] in a line: Plasma concentrations of phenylbutyrate during clinical infusion. Type of data set: in vivo, human.
Excerpt: During the post-remission treatment course, blood specimens collected on heparin were serially obtained before and 2, 4, and 6 hrs following a 2-hour infusion of phenylbutyrate for determination of histone acetylation levels in leukocytes.
Data set [8] deals with NB4 cells. Description: NB4 cell proliferation (3H-thymidine incorporation). Type of data set: cell-based, human. How it is done: as §7
Data set [9] deals with NB4 cells. Description: NB4 cell viability (trypan blue exclusion). It is filed as cell-based, human. Conditions: phenylbutyrate 10 mM, 4 days of culture. How it is done: NB4 cells, a line that stably carries the PML/RAR-α fusion protein of acute promyelocytic leukemia^71, were maintained in RPMI1640 medium, which was supplemented with 10% fetal bovine serum and 1% of penicillin-streptomycin, at 37° C. in 5% CO2 atmosphere. Cultures were established at an initial density of 10^5 cells/ml in the presence or absence of drugs at various concentrations. Cellular proliferation was measured by assessment of ^3 H-thymidine incorporation. Aliquots (180 μl) from each culture were placed into 96-well plates in triplicate after 20 hrs of incubation, and 0.5 μCi of ^3 H-thymidine in 20 μl of medium was added to each well. […] The proportion of cells undergoing apoptosis was determined by Annexin V staining^72. […] Annexin V and propidium iodide positivity were analyzed by flow cytometry (Becton-Dickinson, Mountainview, Calif.). Cell viability was measured after 4 days of incubation by using trypan blue exclusion. Cellular differentiation was evaluated at day 4 of incubation using both an assay for nitroblue tetrazolium (NBT) reduction and expression of CD11b (a cell surface differentiation antigen)^73. […] The optical density was measured at 540 nm. […] Expression of CD11b, including percentage of positive cells and the fluorescence intensity, was determined by using flow cytometry (Becton Dickinson).

For data set [10], the system named is acetylated histones H3 and H4. Description: Histone hyperacetylation in patient's blood and bone marrow mononuclear cells (Western, immunofluorescence). It is filed as in vivo, human. How it is done:
Hyperacetylation was detected using antiacetylated H3 or H4 antibodies reacting with histones that were acid-extracted from nucleated cells in peripheral blood before (lane 1) and 2, 4 and 6 hours (lanes 2 to 4) after initiation of the phenylbutyrate infusion, and from bone marrow before (lane 5) and after (lane 6) completion of the infusion. The parallel gel stained with Coomassie blue is a loading control.
Mononuclear cells from the patient's blood and bone marrow were isolated by density centrifugation and were applied on slides by cytospin. The slides were fixed in 95% ethanol/5% acetic acid for 1 min, permeabilized and blocked in 10% goat serum/1% BSA/0.3% Triton X-100/PBS for 40 min. The slides were then incubated with anti-acetylated histone H4 antibody (Upstate Biotechnology, Inc., Lake Placid, N.Y.) for 1 hr. A Texas-red-conjugated IgG was used as a secondary antibody to reveal the positivity; staining with 4',6-diamidino-2-phenylindole (DAPI) was used to reveal nuclei.
Nuclei from separated blood and bone marrow mononuclear cells were isolated by lysis in buffer containing 10 mM Tris-HCl pH 6.5, 50 mM sodium bisulfite, 1% Triton X-100, 10 mM MgCl2, 8.6% sucrose and Dounce homogenization. Histones were isolated by acid extraction^74. Isolated histones ([…]) were then separated on 15% SDS-PAGE minigels (Bio-Rad, Hercules, Calif.) and transferred to nitrocellulose (Schleicher and Schuell, Keene, N.H.). Hyperacetylated histones were detected by antibodies that specifically recognize the hyperacetylated forms of histone H4 and histone H3 (Upstate Biotechnology) and were visualized by chemiluminescence (Pierce, Rockford, Ill.). As a control for the amount of protein loading, parallel gels were stained with Coomassie blue.

Data set [11] has as its system NB4 cells. Briefly: NB4 cell apoptosis (Annexin V flow cytometry). Type of data set: cell-based, human. How it is done:
as §7
Background: Flow cytometry measures light scatter and fluorescence of single cells or particles in a stream.

Data set [12] has as its system myelodysplasia, myeloid leukemia and solid tumors. Conditions: human, in vivo; cited from earlier work.
[13] abbreviates: Trichostatin A alone (not shown).
Where [14] appears, read: retinoic acid 10^-6 M with Trichostatin A 150 nM, 36 hours.

As for `CC(/C=C/C(=O)NO)=C\[C@@H](C)C(=O)c1ccc(N(C)C)cc1` [Trichostatin A], the transcriptional effect result in [1] (setting [13]) and in [2] (setting [13]) was “negligible transcriptional effects” each time. Besides, the “transactivation of reporter / reversal of transcriptional repression” value in data set [1] (setting [14]) and in data set [2] (setting [14]) was “reverted the transcriptional repression” throughout. In addition, the differentiation result in data set [3] was “negligible differentiating effect”. Moreover, the growth inhibition entry in [4] (Trichostatin A alone (5 ng/ml)) is given as “marked growth inhibitory effect”.

As to `CC(=O)O[C@H]1C(=O)[C@@]2(C)[C@H]([C@H](OC(=O)c3ccccc3)[C@]3(O)C[C@H](OC(=O)[C@H](O)[C@@H](NC(=O)c4ccccc4)c4ccccc4)C(C)=C1C3(C)C)[C@]1(OC(C)=O)CO[C@@H]1C[C@@H]2O` [Paclitaxel], the Response result in [5] was “Progression”.

Take `O=C(O)CCCc1ccccc1` [phenylbutyrate, sodium phenylbutyrate]: the differentiation result is given as “no effect” in [6] (phenylbutyrate 0.08 mM), “no effects on other parameters” in data set [6] (phenylbutyrate 0.4 mM) and “little effect upon differentiation” in data set [6] (phenylbutyrate 2 mM). Further, the “clinical achievability of concentration” value in data set [7] (10 mM) was “not clinically achievable”. Besides, the Cmax in [7] (human, plasma, 150 mg/kg, patient, intravenous infusion, read-out: peak plasma levels transiently attained after completing the drug infusion) was around 2000 µM. Moreover, the proliferation result is given as “no effect” in [8] (phenylbutyrate 0.08 mM), “slight growth inhibition” in [8] (phenylbutyrate 0.4 mM), “induced growth inhibition” in data set [8] (phenylbutyrate 2 mM) and “completely inhibited proliferation” in data set [8] (phenylbutyrate 10 mM). In addition, the viable cells entry in data set [9] was “no viable cells remained after 4 days of culture”. For the same compound, the “magnitude of hyperacetylation (Western analysis)” value in data set [10] (6 hours after starting the infusion) was “greatly diminished”. Also, in data set [10] (peripheral blood cells, 6 hours after starting the infusion (approximately 4 hours after discontinuing the drug)), the “acetylated histone H4 (immunofluorescence staining of nuclei)” value is listed as “hyperacetylation was still visually evident”. Also, the “percentage of positive staining cells and staining intensity, acetylated histone H4” value in data set [10] (peripheral blood mononuclear cells 0, 2, 4, 6 hours after infusion) is given as “progressively increases from baseline up to 6-hours”. The “levels of acetylated H3 and H4 (Western blot)” value in [10] (peripheral blood mononuclear cells, two hours after beginning the phenylbutyrate infusion) is reported as “markedly increased”. For the same compound, the apoptosis entry in data set [11] (phenylbutyrate 0.08 mM) was “no effect”; in [11] (phenylbutyrate 0.4 mM), “no effects on other parameters”; in [11] (phenylbutyrate 10 mM), “induced marked apoptosis”. Besides, the induction of apoptosis in [11] (phenylbutyrate 2 mM, 2 days) was 15%. Further, the clinical usefulness entry in [12] is listed as “has not been clinically useful”.

As for `CC1=C(/C=C/C(C)=C/C=C/C(C)=C/C(=O)O)C(C)(C)CCC1` [retinoic acid, all-trans-retinoic acid], the growth inhibition result in [4] (retinoic acid 10^-7 M and 10^-6 M) is recorded as “little if no effects”; in [4] (retinoic acid 10^-7 M and 10^-6 M, listed as Retinoic acid), “minimal”.
